Measured values published in patent US5116985A, “Isoquinoline derivatives and salts thereof” (priority 1989, dated 1992).
Structures can show the parent of a compound that is named as a salt.

Tests used:
[1] = target: T1, trypsin (Bos taurus, UniProt P00760); assay: Inhibition of trypsin hydrolysis of casein, in vitro; type: biochemical; details: casein substrate, 20 μg of trypsin, 37° C., 10 minutes; read-out: 50% inhibitory concentration, substrate casein
T1 sequence (P00760 24-246): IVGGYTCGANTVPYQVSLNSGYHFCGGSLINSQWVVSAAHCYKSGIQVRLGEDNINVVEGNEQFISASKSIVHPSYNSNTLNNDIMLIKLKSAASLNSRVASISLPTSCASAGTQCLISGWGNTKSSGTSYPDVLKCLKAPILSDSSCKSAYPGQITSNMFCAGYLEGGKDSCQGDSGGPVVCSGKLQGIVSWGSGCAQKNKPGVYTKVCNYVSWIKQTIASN
Description: (§1) The inhibitory activity on trypsin in vitro was determined by the methods of Muramatsu, et al. described in the Journal of Biochemistry, 58, 214 (1965).

[2] = target: T1, trypsin; assay: Inhibition of trypsin hydrolysis of TAME (p-tosylarginine methyl ester), in vitro; type: biochemical; details: TAME substrate, 1.5 μg of trypsin, 37° C., 10 minutes; read-out: 50% inhibitory concentration, substrate TAME
Description: as §1

IC50 [1] [nM] | IC50 [2] [nM] | Compound
160 | 56 | N=C(N)Nc1ccc(C(=O)Oc2cccc3c(C(N)=O)nccc23)cc1 [Compound No. 6, 1'-Carbamoyl-5'-isoquinolyl 4-guanidinobenzoate methanesulfonate hemihydrate]
120 | 56 | CCOC(=O)c1nccc2c(OC(=O)c3ccc(NC(=N)N)cc3)cccc12 [Compound No. 7, 1'-Ethoxycarbonyl-5'-isoquinolyl 4-guanidinobenzoate hydrochloride]
410 | 340 | N=C(N)Nc1ccc(C(=O)Oc2cccc3c(C(=O)OCc4ccccc4)nccc23)cc1 [Compound No. 11, 1'-Benzyloxycarbonyl-5'-isoquinolyl 4-guanidinobenzoate hydrochloride monohydrate]
160 | 130 | CC(C)OC(=O)c1nccc2c(OC(=O)c3ccc(NC(=N)N)cc3)cccc12 [Compound No. 9, 1'-Isopropoxycarbonyl-5'-isoquinolyl 4-guanidinobenzoate hydrochloride]
140 | 65 | CN(C)C(=O)COC(=O)Cc1ccc(OC(=O)c2ccc(NC(=N)N)cc2)cc1 [Camostat mesylate, N,N-Dimethylcarbamoylmethyl -p-( -p-guanidinobenzoyloxy)phenylacetate methanesulfonate, reference compound]
140 | 57 | CC(=O)c1nccc2c(OC(=O)c3ccc(NC(=N)N)cc3)cccc12 [Compound No. 4, 1'-Acetyl-5'-isoquinolyl 4-guanidinobenzoate hydrochloride]
170 | 64 | N=C(N)Nc1ccc(C(=O)Oc2cccc3c(C(=O)O)nccc23)cc1 [Compound No. 5, 1'-Carboxy-5'-isoquinolyl 4-guanidinobenzoate quarterhydrate]
140 | 66 | CN(C)C(=O)COC(=O)c1nccc2c(OC(=O)c3ccc(NC(=N)N)cc3)cccc12 [Compound No. 12, 1'-(N,N-Dimethylcarbamoyl)methoxycarbonyl-5'-isoquinolyl 4-guanidinobenzoate hydrochloride]
130 | 56 | N=C(N)Nc1ccc(C(=O)Oc2cccc3cnccc23)cc1 [Compound No. 1, 5-Isoquinolyl 4-guanidinobenzoate dimethanesulfonate monohydrate]
160 | 96 | CCCOC(=O)c1nccc2c(OC(=O)c3ccc(NC(=N)N)cc3)cccc12 [Compound No. 8, 1'-Propoxycarbonyl-5'-isoquinolyl 4-guanidinobenzoate methanesulfonate]
140 | 64 | N=C(N)Nc1ccc(C(=O)Oc2cccc3c(O)nccc23)cc1 [Compound No. 2, 1'-Hydroxy-5'-isoquinolyl 4-guanidinobenzoate methanesulfonate]
140 | 56 | N#Cc1nccc2c(OC(=O)c3ccc(NC(=N)N)cc3)cccc12 [Compound No. 3, 1'-Cyano-5'-isoquinolyl 4-guanidinobenzoate methanesulfonate monohydrate]
2200 | 15000 | CCOC(=O)c1ccc(OC(=O)CCCCCNC(=N)N)cc1 [Gabexate mesylate, Ethyl 4-(6-guanidinohexanoyloxy)benzoate methanesulfonate, reference compound]

Compound | IC50 [1] [nM] | IC50 [2] [nM]
CCCCOC(=O)c1nccc2c(OC(=O)c3ccc(NC(=N)N)cc3)cccc12 [Compound No. 10, 1'-Butoxycarbonyl-5'-isoquinolyl 4-guanidinobenzoate hydrochloride monohydrate] | 210 | 150
